{"source": "patent US11584765B2", "about": "(priority 2017, dated 2023)", "test_system": "C57BL/6 mice", "test": "animal or person", "type": "in vivo", "conditions": "Mus musculus, sc, 0.5 h, s.c. administration, 30 min, 55° C. water, read-out: ED50 (mg/kg) at 30 min on C57BL/6 mice in Warm-water Tail-flick Test", "note": "Structures can show the parent of a compound that is named as a salt.", "data": [{"molecule": "CCOC[C@@]1(CCc2ccc(C)cc2)CCN(Cc2cccnc2)C1", "note": "[Compound 437, (S)-3-((3-(ethoxymethyl)-3-(4-methyl-phenethyl)pyrrolidin-1-yl)methyl)pyridine]", "values": [{"measurement": "ED50", "value": "< 10", "unit": "mg/kg"}]}, {"molecule": "CCOCC1(CCc2ccccc2)CCN(N(C)c2ccc(C)nc2)C1", "note": "(stereo not shown) [Compound 438, N-(3-(ethoxymethyl)-3-phenethylpyrrolidin-1-yl)-N,6-dimethylpyridin-3-amine]", "values": [{"measurement": "ED50", "value": "> 10", "unit": "mg/kg"}]}, {"molecule": "CCOC[C@@]1(CCc2ccc(F)cn2)CCN(Cc2cnc3ccccc3c2)C1", "note": "[Compound 439, (S)-3-((3-(ethoxymethyl)-3-(2-(5-fluoropyridin-2-yl)ethyl)pyrrolidin-1-yl)methyl)quinoline]", "values": [{"measurement": "ED50", "value": "< 10", "unit": "mg/kg"}]}, {"molecule": "CCOC[C@@]1(CCc2ccccc2F)CCN(Cc2cccnc2)C1", "note": "[Compound 440]", "values": [{"measurement": "ED50", "value": "< 10", "unit": "mg/kg"}]}, {"molecule": "CCOC[C@@]1(CCc2cccc(F)c2)CCN(Cc2cccnc2)C1", "note": "[Compound 441, (S)-3-((3-(ethoxymethyl)-3-(3-fluoro-phenethyl)pyrrolidin-1-yl)methyl)pyridine]", "values": [{"measurement": "ED50", "value": "< 10", "unit": "mg/kg"}]}, {"molecule": "CCOC[C@@]1(CNc2ccccc2)CCN(Cc2ccc(C)nc2)C1.Cl", "note": "[Compound 442, (R)-N-((3-(ethoxymethyl)-1-((6-methylpyridin-3-yl)methyl)pyrrolidin-3-yl)methyl)aniline HCl]", "values": [{"measurement": "ED50", "value": "< 10", "unit": "mg/kg"}]}, {"molecule": "CCOC[C@@]1(CN(C)c2ccccc2)CCN(Cc2cccnc2)C1.Cl", "note": "[Compound 443, (S)-N-((3-(ethoxymethyl)-l-(pyridin-3-ylmethyl)pyrrolidin-3-yl)methyl)-N-methylaniline HCl]", "values": [{"measurement": "ED50", "value": "< 10", "unit": "mg/kg"}]}, {"molecule": "CCOC[C@@]1(COc2ccccc2)CCN(Cc2cccnc2)C1.Cl", "note": "[Compound 444, (R)-3-((3-(ethoxymethyl)-3-(phenoxy-methyl)pyrrolidin-1-yl)methyl)pyridine HCl]", "values": [{"measurement": "ED50", "value": "< 10", "unit": "mg/kg"}]}, {"molecule": "CCOC[C@@]1(CCc2nccn2C)CCN(C(C)(C)c2ccc(C)nc2)C1.Cl", "note": "[Compound 445, (S)-5-(2-(3-(ethoxymethyl)-3-(2-(1-methyl-1H-imidazol-2-yl)ethyl)pyrrolidin-1-yl)propan-2-yl)-2-methylpyridine HCl]", "values": [{"measurement": "ED50", "value": "< 10", "unit": "mg/kg"}]}, {"molecule": "CCOC[C@@]1(CCc2nccn2C)CCN(C(C)c2ccc(C)nc2)C1.Cl", "note": "(stereo partly drawn) [Compound 446, 5-(1-((S)-3-(ethoxymethyl)-3-(2-(1-methyl-1H-imidazol-2-yl)ethyl)pyrrolidin-1-yl)ethyl)-2-methylpyridine HCl]", "values": [{"measurement": "ED50", "value": "< 10", "unit": "mg/kg"}]}, {"molecule": "CC(c1cccnc1)N1CCC(CCc2cccs2)(c2ccccn2)CC1.Cl", "note": "(stereo not shown) [Compound 447, 2-(1-(1-(pyridin-3-yl)ethyl)-4-(2-(thiophen-2-yl)ethyl)piperidin-4-yl)pyridine HCl]", "values": [{"measurement": "ED50", "value": "< 10", "unit": "mg/kg"}]}, {"molecule": "Cl.Cn1cc(CN2CCC(CCc3cccs3)(c3ccccn3)CC2)cn1", "note": "[Compound 448]", "values": [{"measurement": "ED50", "value": "< 10", "unit": "mg/kg"}]}, {"molecule": "CCOC[C@@]1(CCc2nc(C)cs2)CCN(C(C)(C)c2ccc(C)nc2)C1.Cl", "note": "[Compound 449, (S)-2-(2-(3-(ethoxymethyl)-1-(2-(6-methylpyridin-3-yl)propan-2-yl)pyrrolidin-3-yl)ethyl)-4-methylthiazole HCl]", "values": [{"measurement": "ED50", "value": "< 10", "unit": "mg/kg"}]}, {"molecule": "CCOC[C@@]1(CCc2nc(C)c(C)s2)CCN(C(C)(C)c2ccc(C)nc2)C1.Cl", "note": "[Compound 450, (S)-2-(2-(3-(ethoxymethyl)-1-(2-(6-methylpyridin-3-yl)propan-2-yl)pyrrolidin-3-yl)ethyl)-4,5-dimethylthiazole HCl]", "values": [{"measurement": "ED50", "value": "< 10", "unit": "mg/kg"}]}, {"molecule": "CCOCC1(CCc2cccs2)CCCN1Cc1cccnc1.Cl", "note": "(stereo not shown) [Compound 451, 3-((2-(ethoxymethyl)-2-(2-(thiophen-2-yl)ethyl)pyrrolidin-1-yl)methyl)pyridine HCl]", "values": [{"measurement": "ED50", "value": "< 10", "unit": "mg/kg"}]}, {"molecule": "CCOC[C@@]1(CCc2cccs2)CCN(Cc2ccc(OC)nc2)C1.Cl", "note": "[Compound 452, (S)-5-((3-(ethoxymethyl)-3-(2-(thiophen-2-yl)ethyl)pyrrolidin-1-yl)methyl)-2-methoxypyridine HCl]", "values": [{"measurement": "ED50", "value": "< 10", "unit": "mg/kg"}]}, {"molecule": "CCOC[C@@]1(CCc2cccs2)CCN(C(C)(C)c2ccc(OC)nc2)C1.Cl", "note": "[Compound 453, (S)-5-(2-(3-(ethoxymethyl)-3-(2-(thiophen-2-yl)ethyl)pyrrolidin-1-yl)propan-2-yl)-2-methoxypyridine HCl]", "values": [{"measurement": "ED50", "value": "< 10", "unit": "mg/kg"}]}, {"molecule": "CCOC[C@@]1(CCc2cccs2)CCN(Cc2ccc(=O)[nH]c2)C1.Cl", "note": "[Compound 454, (S)-5-((3-(ethoxymethyl)-3-(2-(thiophen-2-yl)ethyl)pyrrolidin-1-yl)methyl)pyridin-2(1H)-one HCl]", "values": [{"measurement": "ED50", "value": "> 10", "unit": "mg/kg"}]}, {"molecule": "CCOCC1(CCC2CCCS2)CCCN1Cc1cccnc1.Cl", "note": "(stereo not shown) [Compound 455, 3-((2-(ethoxymethyl)-2-(2-(tetrahydrothiophen-2-yl)ethyl)pyrrolidin-1-yl)methyl)pyridine HCl]", "values": [{"measurement": "ED50", "value": "> 10", "unit": "mg/kg"}]}, {"molecule": "CCOC[C@@]1(CCc2nc3ncncc3[nH]2)CCN(C(C)(C)c2ccc(C)nc2)C1", "note": "[Compound 456, (S)-8-(2-(3-(ethoxymethyl)-1-(2-(6-methylpyridin-3-yl)propan-2-yl)pyrrolidin-3-yl)ethyl)-7H-purine citrate]", "values": [{"measurement": "ED50", "value": "< 10", "unit": "mg/kg"}]}, {"molecule": "CCOC[C@@]1(CCC2CC2)CCN(C(C)(C)c2ccc(C)nc2)C1", "note": "[Compound 457, (S)-5-(2-(3-(2-cyclopropylethyl)-3-(ethoxy-methyl)pyrrolidin-1-yl)propan-2-yl)-2-methylpyridine citrate]", "values": [{"measurement": "ED50", "value": "< 10", "unit": "mg/kg"}]}, {"molecule": "CCOC[C@@]1(COCc2ccccc2)CCN(C(C)(C)c2ccc(C)nc2)C1.Cl", "note": "[Compound 458, (R)-5-(2-(3-((benzyloxy)methyl)-3-(ethoxy-methyl)pyrrolidin-1-yl)propan-2-yl)-2-methylpyridine HCl]", "values": [{"measurement": "ED50", "value": "< 10", "unit": "mg/kg"}]}, {"molecule": "CCCCC[C@]1(COCC)CCN(C(C)(C)c2ccc(C)nc2)C1.Cl", "note": "[Compound 459, (S)-5-(2-(3-(ethoxymethyl)-3-pentylpyrrolidin-1-yl)propan-2-yl)-2-methylpyridine HCl]", "values": [{"measurement": "ED50", "value": "< 10", "unit": "mg/kg"}]}, {"molecule": "CCOCC1CCN(C(C)(C)c2ccc(C)nc2)C1.Cl", "note": "(stereo not shown) [Compound 460, 5-(2-(3-(ethoxy-methyl)pyrrolidin-1-yl)propan-2-yl)-2-methylpyridine HCl]", "values": [{"measurement": "ED50", "value": "< 10", "unit": "mg/kg"}]}, {"molecule": "CCOC[C@@]1(CCc2nc3ncncc3n2Cc2ccc(OC)cc2)CCN(C(C)(C)c2ccc(C)nc2)C1", "note": "[Compound 461, (S)-8-(2-(3-(ethoxymethyl)-1-(2-(6-methylpyridin-3-yl)propan-2-yl)pyrrolidin-3-yl)ethyl)-7-(4-methoxybenzyl)-7H-purine citrate]", "values": [{"measurement": "ED50", "value": "< 10", "unit": "mg/kg"}]}, {"molecule": "CCOC[C@@]1(CCc2sccc2C)CCN(Cc2cccnc2)C1", "note": "[Compound 462, (S)-3-((3-(ethoxymethyl)-3-(2-(3-methylthiophen-2-yl)ethyl)pyrrolidin-1-yl)methyl)pyridine]", "values": [{"measurement": "ED50", "value": "< 10", "unit": "mg/kg"}]}, {"molecule": "CCOC[C@@]1(CCc2ccc(C)s2)CCN(Cc2cccnc2)C1", "note": "[Compound 463, (S)-3-((3-(ethoxymethyl)-3-(2-(5-methylthiophen-2-yl)ethyl)pyrrolidin-1-yl)methyl)pyridine]", "values": [{"measurement": "ED50", "value": "< 10", "unit": "mg/kg"}]}, {"molecule": "CCOC[C@@]1(CCc2ccsc2C)CCN(Cc2cccnc2)C1", "note": "[Compound 464, (S)-3-((3-(ethoxymethyl)-3-(2-(2-methylthiophen-3-yl)ethyl)pyrrolidin-1-yl)methyl)pyridine]", "values": [{"measurement": "ED50", "value": "< 10", "unit": "mg/kg"}]}, {"molecule": "CCOC[C@@]1(CCC2CC2)CCN(C2(c3ccc(C)nc3)CC2)C1", "note": "[Compound 466, (S)-5-(1-(3-(2-cyclopropylethyl)-3-(ethoxy-methyl)pyrrolidin-1-yl)cyclopropyl)-2-methylpyridine]", "values": [{"measurement": "ED50", "value": "< 10", "unit": "mg/kg"}]}, {"molecule": "Cc1ccc(CN2[C@@H](C)CC(CCc3ccc(F)cn3)(c3ccccn3)C[C@@H]2C)cn1", "note": "(stereo partly drawn) [Compound 467, 2-(2-((2S,6S)-2,6-dimethyl-1-((6-methylpyridin-3-yl)methyl)-4-(pyridin-2-yl)piperidin-4-yl)ethyl)-5-fluoropyridine]", "values": [{"measurement": "ED50", "value": "> 10", "unit": "mg/kg"}]}, {"molecule": "Cc1ccc(C(C)(C)N2CC[C@](CCc3cccs3)([C@@H]3CCC(C)(C)O3)C2)cn1", "note": "[Compound 468, 5-(2-((S)-3-((S)-5,5-dimethyltetrahydro-furan-2-yl)-3-(2-(thiophen-2-yl)ethyl)pyrrolidin-1-yl)propan-2-yl)-2-methylpyridine]", "values": [{"measurement": "ED50", "value": "< 10", "unit": "mg/kg"}]}]}
